Where “and” joins values, the source holds several entries; their conditions need not be identical. Equal values may be shown once. Values belong to the compound of their own block, whether it stands above or below them.
Test system: LG0567-F671-PDC complex spheroids viability
Experiment: Anticancer human tumor LG0567-F671-PDC patient-derived lung adenocarcinoma cell line growth inhibition [RAS]
Settings: for viability, T/C: stronger effect = lower value
Method in brief: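 Tumour cells grown as complex spheroids with HUVEC endothelial cells and mesenchymal stem cells, treated with RAS pathway inhibitor combinations. Each agent spans half-log steps from near clinical Cmax, or 10 microM where Cmax is unknown.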

[1] = curve of first compound, second compound 0.0316 µM
[2] = curve of first compound, second compound 0.1 µM
[3] = curve of first compound, second compound 0.316 µM
[4] = curve of first compound, second compound 1 µM
[5] = second compound 0.0316 µM, first compound 0.00316 µM
[6] = second compound 0.0316 µM, first compound 0.01 µM
[7] = second compound 0.0316 µM, first compound 0.0316 µM
[8] = second compound 0.0316 µM, first compound 0.1 µM
[9] = second compound 0.0316 µM, first compound 0.316 µM
[10] = second compound 0.0316 µM, first compound 1 µM
[11] = second compound 0.1 µM, first compound 0.00316 µM
[12] = second compound 0.1 µM, first compound 0.01 µM
[13] = second compound 0.1 µM, first compound 0.0316 µM
[14] = second compound 0.1 µM, first compound 0.1 µM
[15] = second compound 0.1 µM, first compound 0.316 µM
[16] = second compound 0.1 µM, first compound 1 µM
[17] = second compound 0.316 µM, first compound 0.00316 µM
[18] = second compound 0.316 µM, first compound 0.01 µM
[19] = second compound 0.316 µM, first compound 0.0316 µM
[20] = second compound 0.316 µM, first compound 0.1 µM
[21] = second compound 0.316 µM, first compound 0.316 µM
[22] = second compound 0.316 µM, first compound 1 µM
[23] = second compound 1 µM, first compound 0.00316 µM
[24] = second compound 1 µM, first compound 0.01 µM
[25] = second compound 1 µM, first compound 0.0316 µM
[26] = second compound 1 µM, first compound 0.1 µM
[27] = second compound 1 µM, first compound 0.316 µM
[28] = second compound 1 µM, first compound 1 µM
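Note: spheroids exposed to compound for seven days before readout.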
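Throughout, for IC50: luminescence signal used as a proxy for viable cells.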

IC50 (curve of compound): > 10000 nM
Compound: C[C@@H](NC(=O)c1ncnc(N)c1Cl)c1ncc(C(=O)Nc2cc(C(F)(F)F)c(Cl)cn2)s1
viability, T/C (compound 0.0316 µM): 115% [middle of 4 runs] | viability, T/C (compound 0.1 µM): 120% (2×) and 125% (2×) | viability, T/C (compound 0.316 µM): 129% and 122% (2×) and 128% | viability, T/C (compound 1 µM): 121% [middle of 4 runs] | viability, T/C (compound 3.16 µM): 102% [middle of 4 runs] | viability, T/C (compound 10 µM): 79% [middle of 4 runs]

IC50 (curve of first compound, second compound 0.00316 µM): < 3.16 nM | IC50 (curve of first compound, second compound 0.01 µM): < 3.16 nM | IC50 [1]: < 3.16 nM | IC50 [2]: < 3.16 nM | IC50 [3]: < 3.16 nM | IC50 [4]: < 3.16 nM
Compound: CCN1CCN(Cc2ccc(Nc3ncc(F)c(-c4cc(F)c5nc(C)n(C(C)C)c5c4)n3)nc2)CC1 + C=CC(=O)N1CCN(c2nc(OCC3CCCN3C)nc3c(F)c(-c4nc(N)cc(C)c4C(F)(F)F)c(Cl)cc23)C(C)C1
viability, T/C (second compound 0.00316 µM, first compound 0.00316 µM): 16.6% | viability, T/C (second compound 0.00316 µM, first compound 0.01 µM): 14.9% | viability, T/C (second compound 0.00316 µM, first compound 0.0316 µM): 13.7% | viability, T/C (second compound 0.00316 µM, first compound 0.1 µM): 14.2% | viability, T/C (second compound 0.00316 µM, first compound 0.316 µM): 16.6% | viability, T/C (second compound 0.00316 µM, first compound 1 µM): 22% | viability, T/C (second compound 0.01 µM, first compound 0.00316 µM): 13.5% | viability, T/C (second compound 0.01 µM, first compound 0.01 µM): 14.1% | viability, T/C (second compound 0.01 µM, first compound 0.0316 µM): 14.4% | viability, T/C (second compound 0.01 µM, first compound 0.1 µM): 11.8% | viability, T/C (second compound 0.01 µM, first compound 0.316 µM): 14.9% | viability, T/C (second compound 0.01 µM, first compound 1 µM): 20.2% | viability, T/C [5]: 14.8% | viability, T/C [6]: 13.1% | viability, T/C [7]: 11.7% | viability, T/C [8]: 12.4% | viability, T/C [9]: 14.3% | viability, T/C [10]: 21.2% | viability, T/C [11]: 11.7% | viability, T/C [12]: 11.5% | viability, T/C [13]: 12.4% | viability, T/C [14]: 11.5% | viability, T/C [15]: 15% | viability, T/C [16]: 18.1% | viability, T/C [17]: 12.7% | viability, T/C [18]: 13.1% | viability, T/C [19]: 11.9% | viability, T/C [20]: 11.3% | viability, T/C [21]: 13.8% | viability, T/C [22]: 17.2% | viability, T/C [23]: 13.4% | viability, T/C [24]: 14.9% | viability, T/C [25]: 12.6% | viability, T/C [26]: 13.7% | viability, T/C [27]: 16.1% | viability, T/C [28]: 20.9%

IC50 (curve of compound): 93.7 nM [middle of 4 runs]
Compound: Cc1nc(N2CCC3(CC2)COC(C)C3N)c(CO)nc1Sc1ccnc(N)c1Cl (stereo not given)
viability, T/C (compound 0.0316 µM): 72.2% [middle of 4 runs] | viability, T/C (compound 0.1 µM): 48.2% [middle of 4 runs] | viability, T/C (compound 0.316 µM): 36.3% [middle of 4 runs] | viability, T/C (compound 1 µM): 28.1% [middle of 4 runs] | viability, T/C (compound 3.16 µM): 21.7% [middle of 4 runs] | viability, T/C (compound 10 µM): 19.9% [middle of 4 runs]

Further lines, the compound ahead of its results:

Compound: CC(=O)OC12COC1CC(O)C1(C)C(=O)C(O)C3=C(C)C(OC(=O)C(O)C(NC(=O)OC(C)(C)C)c4ccccc4)CC(O)(C(OC(=O)c4ccccc4)C21)C3(C)C (stereo not given) + CCn1c(-c2cc(N3CCN(C)CC3)cnc2C(C)OC)c2c3cc(ccc31)-c1csc(n1)CC(NC(=O)C1CC1C)C(=O)N1CCCC(N1)C(=O)OCC(C)(C)C2
IC50 (curve of first compound, second compound 0.000949 µM): < 31.6 nM | IC50 (curve of first compound, second compound 0.003 µM): < 31.6 nM | IC50 (curve of first compound, second compound 0.00949 µM): < 31.6 nM | IC50 (curve of first compound, second compound 0.03 µM): < 31.6 nM | IC50 (curve of first compound, second compound 0.0949 µM): < 31.6 nM | IC50 (curve of first compound, second compound 0.3 µM): < 31.6 nM | viability, T/C (second compound 0.000949 µM, first compound 0.0316 µM): 17.3% | viability, T/C (second compound 0.000949 µM, first compound 0.1 µM): 14.6% | viability, T/C (second compound 0.000949 µM, first compound 0.316 µM): 16.6% | viability, T/C (second compound 0.000949 µM, first compound 1 µM): 20.3% | viability, T/C (second compound 0.000949 µM, first compound 3.16 µM): 21.7% | viability, T/C (second compound 0.000949 µM, first compound 10 µM): 15.3% | viability, T/C (second compound 0.003 µM, first compound 0.0316 µM): 8.54% | viability, T/C (second compound 0.003 µM, first compound 0.1 µM): 7.86% | viability, T/C (second compound 0.003 µM, first compound 0.316 µM): 8.72% | viability, T/C (second compound 0.003 µM, first compound 1 µM): 8.18% | viability, T/C (second compound 0.003 µM, first compound 3.16 µM): 8.46% | viability, T/C (second compound 0.003 µM, first compound 10 µM): 5.71% | viability, T/C (second compound 0.00949 µM, first compound 0.0316 µM): 5.57% | viability, T/C (second compound 0.00949 µM, first compound 0.1 µM): 4.28% | viability, T/C (second compound 0.00949 µM, first compound 0.316 µM): 4.95% | viability, T/C (second compound 0.00949 µM, first compound 1 µM): 3.96% | viability, T/C (second compound 0.00949 µM, first compound 3.16 µM): 4.72% | viability, T/C (second compound 0.00949 µM, first compound 10 µM): 3.03% | viability, T/C (second compound 0.03 µM, first compound 0.0316 µM): 3.18% | viability, T/C (second compound 0.03 µM, first compound 0.1 µM): 3.69% | viability, T/C (second compound 0.03 µM, first compound 0.316 µM): 3.02% | viability, T/C (second compound 0.03 µM, first compound 1 µM): 3.03% | viability, T/C (second compound 0.03 µM, first compound 3.16 µM): 2.9% | viability, T/C (second compound 0.03 µM, first compound 10 µM): 1.92% | viability, T/C (second compound 0.0949 µM, first compound 0.0316 µM): 2.46% | viability, T/C (second compound 0.0949 µM, first compound 0.1 µM): 2.37% | viability, T/C (second compound 0.0949 µM, first compound 0.316 µM): 2.22% | viability, T/C (second compound 0.0949 µM, first compound 1 µM): 2.27% | viability, T/C (second compound 0.0949 µM, first compound 3.16 µM): 2.34% | viability, T/C (second compound 0.0949 µM, first compound 10 µM): 1.6% | viability, T/C (second compound 0.3 µM, first compound 0.0316 µM): 2.92% | viability, T/C (second compound 0.3 µM, first compound 0.1 µM): 1.92% | viability, T/C (second compound 0.3 µM, first compound 0.316 µM): 1.85% | viability, T/C (second compound 0.3 µM, first compound 1 µM): 1.89% | viability, T/C (second compound 0.3 µM, first compound 3.16 µM): 2.06% | viability, T/C (second compound 0.3 µM, first compound 10 µM): 1.66%

Compound: O=C(c1ccc(F)c(F)c1Nc1ccc(I)cc1F)N1CC(O)([C@@H]2CCCCN2)C1 + C#Cc1c(F)ccc2cc(O)cc(-c3ncc4c(N5CC6CCC(C5)N6)nc(OCC56CCCN5CC(F)C6)nc4c3F)c12
IC50 [1]: 13.6 nM | IC50 [2]: 8.46 nM | IC50 [3]: 5.19 nM | IC50 [4]: < 3.16 nM | IC50 (curve of first compound, second compound 3.16 µM): < 3.16 nM | IC50 (curve of first compound, second compound 10 µM): < 3.16 nM | viability, T/C [5]: 80.2% | viability, T/C [6]: 53.4% | viability, T/C [7]: 37% | viability, T/C [8]: 23% | viability, T/C [9]: 10.1% | viability, T/C [10]: 3.93% | viability, T/C [11]: 64.2% | viability, T/C [12]: 45.9% | viability, T/C [13]: 35.4% | viability, T/C [14]: 19.2% | viability, T/C [15]: 10.7% | viability, T/C [16]: 3.38% | viability, T/C [17]: 52.8% | viability, T/C [18]: 46.8% | viability, T/C [19]: 30.7% | viability, T/C [20]: 17.1% | viability, T/C [21]: 9.98% | viability, T/C [22]: 3.87% | viability, T/C [23]: 34.5% | viability, T/C [24]: 28% | viability, T/C [25]: 21.3% | viability, T/C [26]: 12.1% | viability, T/C [27]: 6.87% | viability, T/C [28]: 3.06% | viability, T/C (second compound 3.16 µM, first compound 0.00316 µM): 17.3% | viability, T/C (second compound 3.16 µM, first compound 0.01 µM): 14.1% | viability, T/C (second compound 3.16 µM, first compound 0.0316 µM): 16.4% | viability, T/C (second compound 3.16 µM, first compound 0.1 µM): 7.89% | viability, T/C (second compound 3.16 µM, first compound 0.316 µM): 3.15% | viability, T/C (second compound 3.16 µM, first compound 1 µM): 2.12% | viability, T/C (second compound 10 µM, first compound 0.00316 µM): 10.5% | viability, T/C (second compound 10 µM, first compound 0.01 µM): 7.59% | viability, T/C (second compound 10 µM, first compound 0.0316 µM): 5.41% | viability, T/C (second compound 10 µM, first compound 0.1 µM): 2.84% | viability, T/C (second compound 10 µM, first compound 0.316 µM): 1.91% | viability, T/C (second compound 10 µM, first compound 1 µM): 1.49%
